# According to patent US12691107B2, “Methods for the treatment and prevention of lung infections caused by gram-positive bacteria, fungus, or virus by administration of tafenoquine” (priority 2020, dated 2026):
# Read-outs that look alike come from different tables or passages of the source.
# What was measured:
# P. aeruginosa = assay: Antibacterial MIC (broth microdilution); assay type: cell-based; details: Pseudomonas aeruginosa
# Cryptococcus neoformans = assay: Antifungal MIC (RPMI-1640 microdilution); assay type: cell-based
# C. krusei = assay: Antifungal MIC (RPMI-1640 microdilution); assay type: cell-based; details: Pichia kudriavzevii, isolate ATCC 6258
# Coccidioides sp. = assay: microbe, parasite or virus in culture; assay type: cell-based
# A. baumannii = assay: Antibacterial MIC (broth microdilution); assay type: cell-based; details: Acinetobacter baumannii
# Aspergillus flavus = assay: Antifungal MIC (RPMI-1640 microdilution); assay type: cell-based
# Rhizopus arrhizus = assay: Antifungal MIC (RPMI-1640 microdilution); assay type: cell-based
# Histoplasma capsulatum = assay: microbe, parasite or virus in culture; assay type: cell-based
# Scedosporium sp. = assay: Antifungal MIC (RPMI-1640 microdilution); assay type: cell-based
# Altenaria sp. = assay: Antifungal MIC (RPMI-1640 microdilution); assay type: cell-based; details: isolate Alt1
# Candida glabrata = assay: Antifungal MIC (RPMI-1640 microdilution); assay type: cell-based
# [1] = Plasma levels of tafenoquine in humans; details: human, in vivo
# GPCMV strain 22122 = assay: GPCMV qPCR assay in Guinea Pig Lung cells; assay type: cell-based; details: Cavia porcellus, 168 h, 7 d
# Vero E6 cells = details: African green monkey
# Pneumocystis = Pneumocystis pneumonia in rats, therapy or prophylaxis
# [2] = system: HFF, mouse embryo fibroblast and Guinea Pig Lung cells; details: range over all three cytomegalovirus assays
# SARS-CoV-2 [3] = assay: SARS-CoV-2 antiviral assay in CALU-3 cells; assay type: cell-based; details: Severe acute respiratory syndrome coronavirus 2, medium with 10% fetal bovine serum, read-out: EC50 (same as IC50 of FIG. 4)
# MCMV strain Smith = assay: MCMV qPCR assay in mouse embryo fibroblast cells; assay type: cell-based; details: 168 h, 7 d
# [4] = Blood cell:plasma partitioning experiments; assay type: in vitro ADME, human; details: humans
# SARS-CoV-2 [5] = assay: microbe, parasite or virus in culture; assay type: cell-based; details: Severe acute respiratory syndrome coronavirus 2, Vero C1008; Vero E6, moi 0.05, 48 hours, TCID50
# [6] = in vivo, cited from earlier work
structure (smiles),measurement,setting,value
COc1cc(C)c2c(Oc3cccc(C(F)(F)F)c3)c(OC)cc(NC(C)CCCN)c2n1.O=C(O)CCC(=O)O (stereo not drawn) [Tafenoquine Succinate],MIC,"P. aeruginosa; ATCC27853, isolate ATCC 27853",> 64 µg/mL
same,MIC,P. aeruginosa; isolate AR-230,> 64 µg/mL
same,MIC,P. aeruginosa; isolate J4242,> 64 µg/mL
same,MIC50,"Cryptococcus neoformans; Cryptococcus neoformans, read-out: MIC 50% inhibition, isolate CN3",4 µg/mL
same,MIC50,"Cryptococcus neoformans; Cryptococcus neoformans, read-out: MIC 50% inhibition, isolate H99",4 µg/mL
same,MIC50,"Cryptococcus neoformans; Cryptococcus neoformans, read-out: MIC 50% inhibition, isolate USC1597",4 µg/mL
same,MIC,"Cryptococcus neoformans; Cryptococcus neoformans, read-out: MIC 100% inhibition, isolate USC1597",4 µg/mL
same,MIC 100% inhibition,Cryptococcus neoformans; isolate CN3,4 µg/mL
same,MIC 100% inhibition,Cryptococcus neoformans; isolate H99,4 µg/mL
same,MIC50,"C. krusei; ATCC6258, read-out: MIC 50% inhibition",4 µg/mL
same,MIC,"C. krusei; ATCC6258, read-out: MIC 100% inhibition",4 µg/mL
same,MIC50,"Coccidioides sp.; read-out: MIC 50% inhibition, isolate Cocci1",4 µg/mL
same,MIC50,"Coccidioides sp.; read-out: MIC 50% inhibition, isolate Cocci2",16 µg/mL
same,MIC50,"Coccidioides sp.; read-out: MIC 50% inhibition, isolate D117-143",16 µg/mL
same,MIC,"Coccidioides sp.; read-out: MIC 100% inhibition, isolate Cocci1",8 µg/mL
same,MIC,"Coccidioides sp.; read-out: MIC 100% inhibition, isolate Cocci2",16 µg/mL
same,MIC,"Coccidioides sp.; read-out: MIC 100% inhibition, isolate D117-143",16 µg/mL
same,MIC,"A. baumannii; ATCC17978, isolate ATCC 17978",64 µg/mL
same,MIC,A. baumannii; isolate AR-88,64 µg/mL
same,MIC,A. baumannii; isolate AR-273,> 64 µg/mL
same,MIC50,"Aspergillus flavus; ATCC204304, read-out: MIC 50% inhibition, isolate ATCC 204304",4 µg/mL
same,MIC,"Aspergillus flavus; ATCC204304, read-out: MIC 100% inhibition, isolate ATCC 204304",4 µg/mL
same,MIC50,"Aspergillus flavus; read-out: MIC 50% inhibition, isolate Aflav2",8 µg/mL
same,MIC50,"Aspergillus flavus; read-out: MIC 50% inhibition, isolate Aflav3",4 µg/mL
same,MIC,"Aspergillus flavus; read-out: MIC 100% inhibition, isolate Aflav2",16 µg/mL
same,MIC,"Aspergillus flavus; read-out: MIC 100% inhibition, isolate Aflav3",8 µg/mL
same,MIC50,"Rhizopus arrhizus; read-out: MIC 50% inhibition, isolate 99-880",4 µg/mL
same,MIC50,"Rhizopus arrhizus; read-out: MIC 50% inhibition, isolate 99-892",4 µg/mL
same,MIC50,"Rhizopus arrhizus; read-out: MIC 50% inhibition, isolate RAI",8 µg/mL
same,MIC,"Rhizopus arrhizus; read-out: MIC 100% inhibition, isolate 99-880",4 µg/mL
same,MIC,"Rhizopus arrhizus; read-out: MIC 100% inhibition, isolate 99-892",4 µg/mL
same,MIC,"Rhizopus arrhizus; read-out: MIC 100% inhibition, isolate RAI",16 µg/mL
same,MIC50,"Histoplasma capsulatum; read-out: MIC 50% inhibition, isolate HC1",4 µg/mL
same,MIC50,"Histoplasma capsulatum; read-out: MIC 50% inhibition, isolate HC2",2 µg/mL
same,MIC50,"Histoplasma capsulatum; read-out: MIC 50% inhibition, isolate HC3",8 µg/mL
same,MIC,"Histoplasma capsulatum; read-out: MIC 100% inhibition, isolate HC1",4 µg/mL
same,MIC,"Histoplasma capsulatum; read-out: MIC 100% inhibition, isolate HC2",4 µg/mL
same,MIC,"Histoplasma capsulatum; read-out: MIC 100% inhibition, isolate HC3",8 µg/mL
same,MIC50,"Scedosporium sp.; Scedosporium, read-out: MIC 50% inhibition, isolate 00-180",4 µg/mL
same,MIC,"Scedosporium sp.; Scedosporium, read-out: MIC 100% inhibition, isolate 00-180",8 µg/mL
same,MIC,"Scedosporium sp.; Scedosporium, read-out: MIC 100% inhibition, isolate LPI",8 µg/mL
same,MIC,"Scedosporium sp.; Scedosporium, read-out: MIC 100% inhibition, isolate Scedo1",4 µg/mL
same,MIC 50% inhibition,Scedosporium sp.; isolate LPI,4 µg/mL
same,MIC 50% inhibition,Scedosporium sp.; isolate Scedo1,4 µg/mL
same,MIC50,Altenaria sp.; read-out: MIC 50% inhibition,2 µg/mL
same,MIC,Altenaria sp.; read-out: MIC 100% inhibition,4 µg/mL
same,MIC50,"Candida glabrata; Nakaseomyces glabratus, read-out: MIC 50% inhibition, isolate 05-62",8 µg/mL
same,MIC50,"Candida glabrata; Nakaseomyces glabratus, read-out: MIC 50% inhibition, isolate 05-761",8 µg/mL
same,MIC50,"Candida glabrata; Nakaseomyces glabratus, read-out: MIC 50% inhibition, isolate CG3",8 µg/mL
same,MIC,"Candida glabrata; Nakaseomyces glabratus, read-out: MIC 100% inhibition, isolate 05-62",8 µg/mL
same,MIC 100% inhibition,Candida glabrata; isolate 05-761,8 µg/mL
same,MIC 100% inhibition,Candida glabrata; isolate CG3,8 µg/mL
"COc1cc(C)c2c(Oc3cccc(C(F)(F)F)c3)c(OC)cc(NC(C)CCCN)c2n1 (stereo not drawn) [Tafenoquine, N(4)-[2,6-Dimethoxy-4-methyl-5-[3-(trifluoromethyl)phenoxy]quinolin-8-yl]pentane-1,4-diamine]",ratio between steady state and single dose concentrations,[1],approximately 3.3
same,EC50,GPCMV strain 22122,> 6 µM
same,CC50,Vero E6 cells,37.2 µM
same,corresponding steady state plasma level,Pneumocystis; prophylaxis,~36 nanogram/ml
same,effective minimum inhibitory concentration in lungs,Pneumocystis; prophylaxis,23 micrograms/g
same,corresponding steady state plasma level,Pneumocystis; treatment,approximately 125 nanogram/ml
same,effective minimum inhibitory concentration in lungs,Pneumocystis; treatment,81 micrograms/g
same,CC50s,[2],13 to 17 µM
same,EC50,SARS-CoV-2 [3],8.6 µM
same,EC50,MCMV strain Smith,> 6 µM
same,ratio of the blood cell:plasma concentration,[4],1.4
same,EC50,SARS-CoV-2 [5],2.6 µM
same,Cmax of a single dose of 200 mg,[6]; 200 mg,[147 ng/ml *4.4].
same,Cmax following a single dose,[6],approximately 90 nanogram/ml
same,dose proportionality of pharmacokinetics,[6],proportional with the dose administered in the therapeutic range
same,steady state Cmax,[6],300 nanogram/ml
same,steady state concentrations in 95% of individuals,[6],above 80 nanogram/ml
